Test results published in patent US8921424B2, “Histone deacetylase inhibitors, process for preparation and uses thereof” (Zhejiang Hisun Pharmaceutical Co. Ltd., priority 2007, dated 2014).

Tests used:
[1] = test system: HL-60; assay: Xenograft model, HL-60; type: in vivo, mouse; conditions: i.p.
[2] = test system: BXPC-3; assay: Cell-based proliferation assay (SRB), BXPC-3; conditions: Homo sapiens
[3] = test system: MDAMB435; assay: Cell-based proliferation assay (SRB), MDAMB435; conditions: Homo sapiens
Protocol: (§1) Cell-Based Proliferation Assay for Determination of GI50 Values
(§2) A rapid multiwell plate assay using Sulforhodamine B (SRB) protein stain was adopted to evaluate the growth inhibitory effects of the compounds of the present invention. The screening panel of cancer cell lines includes Colo205 and HCT116 colon cancer cells, MDA-MB231 and MDA-MB435 chest cancer cells, A549 lung cancer cells, and Chinese hamster ovary cell line CHO, which were obtained from ATCC.
(§3) The cell line Colo205 is grown in RPMI 1640 medium containing 2 mM L-glutamine, 5% fetal bovine serum, and 1.0 mM sodium pyruvic acid. Cell lines A549 and MDA-MB231 are grown in RPMI 1640 medium containing 2 mM L-glutamine and 5% fetal bovine serum. The cell line MDA-MB435 is grown in DMEM medium containing 2 mM L-glutamine and 5% fetal bovine serum. The cell lines HCT 116 is grown in IMEM medium containing 2 mM L-glutamine and 5% fetal bovine serum. The CHO cell line, used as a normal control on toxicity, is grown in a special medium for cell line. For a typical screening experiment, A549 and Colo205 cells are inoculated into 96-well microtiter plates, with 100 μL per well, and 2000 and 5000 cells per well respectively for either cell line. MDA-MB435, HCT116, MDA-MB231 and CHO cells are also inoculated into 96-well microtiter plates, with 6000 cells per well. After cell inoculation, the microtiter plates are incubated at 37° C., 5% CO2, and 100% relative humidity for 24 hr in order to make cells adhere to well wall.
(§4) After 24 h incubation or time zero for drug addition, with each cell line 50 μl of cold 50% (w/v) TCA is added to wells used for control to fix cells in situ. Also at time zero, cells in other wells are treated with 100 μl of compound of different concentrations for 24 hr, 48 hr, and 72 hr respectively, with varying final compound concentration (0.1 μM, 1 μM, 5 μM 10 μM). For each treatment duration at each compound concentration, there are triplicate wells, as well as an array of control wells including a blank control well (cell culture medium only, no cells), a no-compound control well (adding same volume of cell culture medium but no compound), a positive control well (treated with Suberoylanilide hydroxamic acid (SAHA)), and normal cell well control (CHO cells). Following the addition of compounds, cell plates are incubated for 24 h, 48 h or 72 h per treatment group at 37° C., 5% CO2, and 100% relative humidity. The Treatment is then terminated by addition of cold TCA and incubation of 1 hr at 4° C. The supernatant is discarded, and all wells are washed five times with de-ioned water and air dried. Then each well is added with 100 μl sulforhodamine B (SRB) solution (0.4% (w/v) made in 1% acetic acid) and cell plates are incubated for 20-30 minutes at room temperature. After staining, unbound dye is removed by washing five times with 1% acetic acid and the plates are air dried. Bound stain is subsequently solubilized with 10 mM (200 μL) Tris base with the help of 5 min platform vibration or pipetting up and down, and the absorbance is read on an automated plate reader (M5 detection system, MD Group Ltd.) at a wavelength of 565 nm (calibrated zero reading of blank control at wavelength of 690 nm). The analytical software, XL-fit has been used to generate GI50 from a series of data thus obtained.

[4] = test system: Colo205; assay: Cell-based proliferation assay (SRB), Colo205; conditions: Homo sapiens
Protocol: as §1, §2, §3, §4

[5] = test system: PC-3; assay: Xenograft model, PC-3; type: in vivo, mouse; conditions: i.p., 15 days
[6] = test system: MDAMB231; assay: Cell-based proliferation assay (SRB), MDAMB231; conditions: Homo sapiens, MDA-MB-231; Table 4
Protocol: as §1, §2, §3, §4

[7] = test system: SKOV-3; assay: Cell-based proliferation assay (SRB), SKOV-3; conditions: Homo sapiens
Protocol: as §1, §2, §3, §4

[8] = Microsomal stability and clearance; type: in vitro ADME, human, mouse; conditions: microsomal stability; Table 4
Protocol: Measure of Microsomal Stability and Clearance with Compounds of this Invention
Verapamil (positive control) and compound solution, both at 10 mM, are diluted 200 fold. There are six reaction time points in the experiment (0 min, 5 min, 15 min, 30 min, 45 min, and 60 min), and triplicate samples are used for each data point. There are controls for time zero and negative drug effect (negative control containing no incubation buffer or enzyme). For each compound or Verapamil sample, there are also samples treated with compound or Verapamil at concentrations of no positive effect (at 5 μM and 2.5 μM, respectively). Diluted positive control (Verapamil) and compound solution are mixed with pre-heated (37° C.) incubation buffer (100 mM potassium phosphate buffer, NADPH regeneration system solution B, NAPDH regeneration system solution A, HLM/MLM in Milli-Q ultrapure water), and incubated at 37° C. for 10 min. 100 μL of stop solution mixture is (containing 80% acetonitrile, and 20% DMSO, both of HPLC grade) is dispensed into wells of separate sampling plates into each well. At each reaction time point (0 min, 5 min, 15 min, 30 min, 45 min, and 60 min) 50 μL of reaction solution is taken from wells in the incubation plate and transferred to its corresponding well in the sampling plate, and mixed by pipetting up and down with stop solution already added there. The sampling plates are then covered, placed on ice, and centrifuged at 2,000 rpm at 4° C. for 15 min. 100 μL supernatant is then taken from each well to LC/MS analysis (or stored at 4° C. in refrigerator until analysis).
Data analysis: % remaining of compound is calculated by area of each time point with respect to time 0% remaining against time (min) curve is plotted using the first-phase exponential decay equation y=y0e(−kT) on the Prism 4.0. Results are shown in the format of TOP, K, t1/2 (min), R2 value and % remaining against time curve.

[9] = test system: SKOV-3; assay: Xenograft model, SKOV-3; type: in vivo, mouse; conditions: i.p.

| GI50 ([2]; BXPC-3, Table 3) [µM] | GI50 ([3]; MDA-MB-435, Table 3) [µM] | GI50 ([4]; COLO 205, Table 3) [µM] | GI50 [6] [µM] | GI50 ([7]; SK-OV-3, Table 3) [µM] | half-life [8] [h] | GI50 ([2]; BXPC-3, Table 4) [µM] | GI50 ([3]; MDA-MB-435, Table 4) [µM] | GI50 ([4]; COLO 205, Table 4) [µM] | GI50 ([7]; SK-OV-3, Table 4) [µM] | Structure (SMILES) | T/C(%) HL-60 ([1]; 80 mg/kg, 10 days) | T/C(%) PC-3 ([5]; 80 mg/kg) | T/C(%) SKOV-3 ([9]; 80 mg/kg, 20 days) | T/C(%) HL-60 ([1]; 30 mg/kg, 10 days) | T/C(%) PC-3 ([5]; 30 mg/kg) | T/C(%) SKOV-3 ([9]; 30 mg/kg, 20 days) | T/C(%) HL-60 ([1]; 200 mg/kg, 15 days) | T/C(%) PC-3 ([5]; 200 mg/kg) | T/C(%) SKOV-3 ([9]; 200 mg/kg, 21 days) |
| --- | --- | --- | --- | --- | --- | --- | --- | --- | --- | --- | --- | --- | --- | --- | --- | --- | --- | --- | --- |
| 6.78 | 2.65 | 2.41 | 2.35 | 5.25 | 1.9 | 6.78 | 2.65 | 2.41 | 5.25 | CCCCc1nc2cc(/C=C/C(=O)NO)ccc2n1CCN(CC)CC [SB939, reference compound] | – | – | – | 51% (30,10) | >60% (30,15) | >60% (30,20) | – | – | – |
| 6.89 | 3.1 | 4.23 | 3.5 | 5.46 | 1.8 | – | 3.1 | 4.23 | 5.46 | CCCCCNc1cc(/C=C/C(=O)NO)ccc1SCCN(CC)CC [Example 2, 3-(4-(2-(diethylamino)ethylthio)-3-(pentylamino)phenyl)-N-hydroxy-acrylamide] | – | – | – | – | – | – | 40% (200,15) | 43% (200,15) | 45% (200,21) |

| Structure (SMILES) | GI50 ([2]; BXPC-3, Table 3) [µM] | GI50 ([3]; MDA-MB-435, Table 3) [µM] | GI50 ([4]; COLO 205, Table 3) [µM] | GI50 [6] [µM] | GI50 ([7]; SK-OV-3, Table 3) [µM] | half-life [8] [h] | GI50 ([2]; BXPC-3, Table 4) [µM] | GI50 ([3]; MDA-MB-435, Table 4) [µM] | GI50 ([4]; COLO 205, Table 4) [µM] | GI50 ([7]; SK-OV-3, Table 4) [µM] | T/C(%) HL-60 ([1]; 80 mg/kg, 10 days) | T/C(%) PC-3 ([5]; 80 mg/kg) | T/C(%) SKOV-3 ([9]; 80 mg/kg, 20 days) | T/C(%) HL-60 ([1]; 30 mg/kg, 10 days) | T/C(%) PC-3 ([5]; 30 mg/kg) | T/C(%) SKOV-3 ([9]; 30 mg/kg, 20 days) | T/C(%) HL-60 ([1]; 200 mg/kg, 15 days) | T/C(%) PC-3 ([5]; 200 mg/kg) | T/C(%) SKOV-3 ([9]; 200 mg/kg, 21 days) |
| --- | --- | --- | --- | --- | --- | --- | --- | --- | --- | --- | --- | --- | --- | --- | --- | --- | --- | --- | --- |
| O=C(CCCCCCC(=O)Nc1ccccc1)NO [SAHA, suberoylanilide hydroxamic acid, reference compound] | 5.68 | 4.1 | 3.15 | 5.1 | 3.56 | 1.6 | – | – | – | – | 45% (80,10) | 37% (80,15) | >60% (80,20) | – | – | – | – | – | – |
